Counter-ions that a name gives are not always drawn. Non-standard residues stand in square brackets, D forms with d. Residues, ends and D or L forms follow the SMILES beside them. No end group written: not given here. βAla = NCCC(=O)O
Experiments:
Type in all cases: cell-based
[1] = system: E. faecalis clinical isolate (Motol); test: microbe, parasite or virus in culture; details: clinical isolate Motol, Bioscreen C, at least three times in duplicates
Protocol: (§1) Femur heads (ca. 70 pieces) taken from patients during hip replacement surgery were periodically purchased in the period between 2014–2017 as discarded from the bone tissue bank at University Hospital in Motol, Prague, Czech Republic. The reason for the replacements by artificial prosthesis was the worn out cartilage on the surface of their heads. Bone samples were stored at −80 °C under standard conditions of certified tissue banks. In the laboratory, they were kept at +5 °C overnight and then at room temperature for several hours before they could be used for the experiments. The experiments with this material were approved by the Ethics Committee for Multi-Centric Clinical Trials of the University Hospital Motol, Reference No: EK-655/15. Methicillin-resistant S. aureus (MRSA 6271) ATCC 43300 and P. aeruginosa (5482) ATCC 27853 were purchased from the Czech National Collection of Type Cultures, National Institute of Public Health, Prague, Czech Republic. Methicillin-resistant S. aureus (MRSA (L)) and P. aeruginosa (L) were obtained as multi-resistant clinical isolates from Liberec Regional Hospital, Liberec, Czech Republic. Methicillin-resistant S. aureus (MRSA (M)), E. faecalis and S. epidermidis were obtained as clinical isolates from University Hospital in Motol, Prague. Candida albicans (F7-39/IDE99) came from the mycological collection of the Faculty of Medicine, Palacky University, Olomouc, Czech Republic. C. albicans ATCC MYA-2876, C. tropicalis ATCC 750 and C. glabrata DSY565 were kindly provided by Dr. Hana Sychrová from the Institute of Physiology, Academy of Sciences of the Czech Republic, Prague. Vancomycin hydrochloride, gentamicin sulfate, ceftriaxone disodium salt, amphotericin B, fluconazole, and clotrimazole were obtained from Sigma-Aldrich, Prague, Czech Republic.
(§2) MIC values for peptides were established by observing growth of treated bacteria in HONEYCOMB 100-well microtiter plates (Helsinki, Finland) using a Bioscreen C instrument (Oy Growth Curves, Helsinki, Finland) as previously described. Haemolytic activity of peptides expressed as the concentration of a peptide required for lysis of 50% of human erythrocytes in the assay (LC50) was measured using a Tecan infinite M200 PRO reader (Tecan Austria GmbH, Grödig, Austria). Blood samples for determining haemolytic activity were obtained from healthy volunteers.

[2] = system: MRSA 6271 (ATCC 43300); test: microbe, parasite or virus in culture; details: growth in 100-well microtiter plates, Bioscreen C, tested at least three times in duplicates
Protocol: as §1, §2

[3] = system: MRSA clinical isolate from Liberec Regional Hospital (MRSA (L)); test: microbe, parasite or virus in culture; details: clinical isolate Liberec, Bioscreen C, at least three times in duplicates
Protocol: as §1, §2

[4] = system: MRSA clinical isolate from University Hospital in Motol (MRSA (M)); test: microbe, parasite or virus in culture; details: clinical isolate Motol, Bioscreen C, at least three times in duplicates
Protocol: as §1, §2

[5] = system: P. aeruginosa (5482) ATCC 27853; test: microbe, parasite or virus in culture; details: Bioscreen C, at least three times in duplicates
Protocol: as §1, §2

[6] = system: P. aeruginosa clinical isolate from Liberec Regional Hospital; test: microbe, parasite or virus in culture; details: clinical isolate Liberec, Bioscreen C, at least three times in duplicates
Protocol: as §1, §2

[7] = system: S. epidermidis clinical isolate (Motol); test: microbe, parasite or virus in culture; details: clinical isolate Motol, Bioscreen C, at least three times in duplicates
Protocol: as §1, §2

[8] = system: Candida albicans; details: Bioscreen C; at least three times in duplicates
Protocol: as §1, §2

[9] = system: human erythrocytes; test: Haemolysis assay; details: concentration causing lysis of 50% of human red blood cells; at least three times in duplicates
Protocol: as §2

CNC(C)C1CCC(N)C(OC2C(N)CC(N)C(OC3OCC(C)(O)C(NC)C3O)C2O)O1 (stereo not shown) [Gentamicin, gentamicin sulfate, reference compound]
MIC ([1]; Enterococcus faecalis, read-out: Antimicrobial Activity MIC, E. f. b): 95.2 µM
MIC ([2]; Staphylococcus aureus, read-out: Antimicrobial Activity MIC, MRSA 6271): 325 µM
MIC ([3]; Staphylococcus aureus, MRSA, read-out: Antimicrobial Activity MIC, MRSA a): 3.9 µM
MIC ([4]; Staphylococcus aureus, MRSA, read-out: Antimicrobial Activity MIC, MRSA b): 4.5 µM
MIC ([5]; Pseudomonas aeruginosa, ATCC27853, read-out: Antimicrobial Activity MIC, P. a. 5482): 2 µM
MIC ([6]; Pseudomonas aeruginosa, read-out: Antimicrobial Activity MIC, P. a. a): > 220 µM
MIC ([7]; Staphylococcus epidermidis, read-out: Antimicrobial Activity MIC, S. e. b): 109 µM

CC[C@@H](C)[C@@H](NC(=O)[C@@H](CCCCN)NC(=O)[C@@H](CCCCN)NC(=O)[C@@H](CC(C)C)NC(=O)[C@@H](CC(C)C)NC(=O)[C@@H](CCCCN)NC(=O)[C@@H](CCSC)NC(=O)[C@@H](Cc1c[nH]c2ccccc12)NC(=O)[C@@H](CCCCN)NC(=O)CN)C(=O)N[C@H](CC(C)C)C(=O)N[C@H](CCCCN)C(N)=O [II] (H-G[dK][dW][dM][dK][dL][dL][dK][dK][dI][dL][dK]-NH2; N-terminus assumed)
Antimicrobial Activity MIC, E. f. b [1]: 12.7 µM
Antimicrobial Activity MIC, MRSA 6271 [2]: 11.3 µM
Antimicrobial Activity MIC, MRSA a [3]: 5.3 µM
Antimicrobial Activity MIC, MRSA b [4]: 9.7 µM
Antimicrobial Activity MIC, P. a. 5482 [5]: 4.5 µM
Antimicrobial Activity MIC, P. a. a [6]: 12.5 µM
Antimicrobial Activity MIC, S. e. b [7]: 2.0 µM
Antimicrobial Activity MIC, C. a. [8]: 5.7 µM
Haemolytic Activity LC50 [9]: >400 µM

CC[C@@H](C)[C@@H](NC(=O)[C@@H](CCCCN)NC(=O)[C@@H](CCCCN)NC(=O)[C@@H](CC(C)C)NC(=O)[C@@H](CC(C)C)NC(=O)[C@@H](CCCCN)NC(=O)[C@H](NC(=O)[C@@H](Cc1c[nH]c2ccccc12)NC(=O)[C@@H](CCCCN)NC(=O)CN)C(C)C)C(=O)N[C@H](CC(C)C)C(=O)N[C@H](CCCCN)C(N)=O [VII] (H-G[dK][dW][dV][dK][dL][dL][dK][dK][dI][dL][dK]-NH2; N-terminus assumed)
Antimicrobial Activity MIC, E. f. b [1]: 25.3 µM
Antimicrobial Activity MIC, MRSA 6271 [2]: 22.0 µM
Antimicrobial Activity MIC, MRSA a [3]: 15.0 µM
Antimicrobial Activity MIC, MRSA b [4]: 22.0 µM
Antimicrobial Activity MIC, P. a. 5482 [5]: 4.5 µM
Antimicrobial Activity MIC, P. a. a [6]: 25.3 µM
Antimicrobial Activity MIC, S. e. b [7]: 4.2 µM
Antimicrobial Activity MIC, C. a. [8]: 12.5 µM
Haemolytic Activity LC50 [9]: >400 µM

CC[C@@H](C)[C@@H](NC(=O)[C@@H](CCCCN)NC(=O)[C@@H](CCCCN)NC(=O)[C@@H](CC(C)C)NC(=O)[C@@H](CC(C)C)NC(=O)[C@@H](CCCCN)NC(=O)[C@@H](CCSC)NC(=O)[C@@H](Cc1c[nH]c2ccccc12)NC(=O)[C@@H](CCCCN)NC(=O)CCN)C(=O)N[C@H](CC(C)C)C(=O)N[C@H](CCCCN)C(N)=O [XII] (H-[βAla][dK][dW][dM][dK][dL][dL][dK][dK][dI][dL][dK]-NH2; N-terminus assumed)
Antimicrobial Activity MIC, E. f. b [1]: 32.0 µM
Antimicrobial Activity MIC, MRSA 6271 [2]: 16.0 µM
Antimicrobial Activity MIC, MRSA a [3]: 8.0 µM
Antimicrobial Activity MIC, MRSA b [4]: 16.0 µM
Antimicrobial Activity MIC, P. a. 5482 [5]: 3.2 µM
Antimicrobial Activity MIC, P. a. a [6]: 8.0 µM
Antimicrobial Activity MIC, S. e. b [7]: 2.5 µM
Antimicrobial Activity MIC, C. a. [8]: 5.3 µM
Haemolytic Activity LC50 [9]: >400 µM

CC[C@@H](C)[C@@H](NC(=O)[C@@H](CCCCN)NC(=O)[C@@H](CCCCN)NC(=O)[C@@H](CC(C)C)NC(=O)[C@@H](CC(C)C)NC(=O)[C@@H](CCCCN)NC(=O)[C@@H](CCSC)NC(=O)[C@@H](Cc1c[nH]c2ccccc12)NC(=O)[C@H](N)CCCCN)C(=O)N[C@H](CC(C)C)C(=O)N[C@H](CCCCN)C(N)=O [X] (H-[dK][dW][dM][dK][dL][dL][dK][dK][dI][dL][dK]-NH2; N-terminus assumed)
Antimicrobial Activity MIC, E. f. b [1]: 36 µM
Antimicrobial Activity MIC, MRSA 6271 [2]: 19.3 µM
Antimicrobial Activity MIC, MRSA a [3]: 14.0 µM
Antimicrobial Activity MIC, MRSA b [4]: 14.0 µM
Antimicrobial Activity MIC, P. a. 5482 [5]: 4.5 µM
Antimicrobial Activity MIC, P. a. a [6]: 18.0 µM
Antimicrobial Activity MIC, S. e. b [7]: 3.5 µM
Antimicrobial Activity MIC, C. a. [8]: 11.3 µM
Haemolytic Activity LC50 [9]: >400 µM

GKWKKLLKKILK-NH2 [III]
Antimicrobial Activity MIC, E. f. b [1]: >100 µM
Antimicrobial Activity MIC, MRSA 6271 [2]: 29.7 µM
Antimicrobial Activity MIC, MRSA a [3]: 11.5 µM
Antimicrobial Activity MIC, MRSA b [4]: 25.3 µM
Antimicrobial Activity MIC, P. a. 5482 [5]: 2.9 µM
Antimicrobial Activity MIC, P. a. a [6]: 9.5 µM
Antimicrobial Activity MIC, S. e. b [7]: 4.7 µM
Antimicrobial Activity MIC, C. a. [8]: 9.5 µM
Haemolytic Activity LC50 [9]: >400 µM

GKWLKLLKKILK-NH2 [V]
Antimicrobial Activity MIC, E. f. b [1]: 50.7 µM
Antimicrobial Activity MIC, MRSA 6271 [2]: 10.0 µM
Antimicrobial Activity MIC, MRSA a [3]: 8.0 µM
Antimicrobial Activity MIC, MRSA b [4]: 10.0 µM
Antimicrobial Activity MIC, P. a. 5482 [5]: 4.0 µM
Antimicrobial Activity MIC, P. a. a [6]: 10.7 µM
Antimicrobial Activity MIC, S. e. b [7]: 2.2 µM
Antimicrobial Activity MIC, C. a. [8]: 16.0 µM
Haemolytic Activity LC50 [9]: 196 µM

GKWMKMLKKILK-NH2 [IV]
Antimicrobial Activity MIC, E. f. b [1]: >100 µM
Antimicrobial Activity MIC, MRSA 6271 [2]: 20.0 µM
Antimicrobial Activity MIC, MRSA a [3]: 10.0 µM
Antimicrobial Activity MIC, MRSA b [4]: 20.0 µM
Antimicrobial Activity MIC, P. a. 5482 [5]: 5.3 µM
Antimicrobial Activity MIC, P. a. a [6]: 12.7 µM
Antimicrobial Activity MIC, S. e. b [7]: 3.2 µM
Antimicrobial Activity MIC, C. a. [8]: 12.7 µM
Haemolytic Activity LC50 [9]: >200 µM

GKWVKLLKKILK-NH2 [VI]
Antimicrobial Activity MIC, E. f. b [1]: >100 µM
Antimicrobial Activity MIC, MRSA 6271 [2]: 9.0 µM
Antimicrobial Activity MIC, MRSA a [3]: 5.0 µM
Antimicrobial Activity MIC, MRSA b [4]: 10.0 µM
Antimicrobial Activity MIC, P. a. 5482 [5]: 3.0 µM
Antimicrobial Activity MIC, P. a. a [6]: 12.7 µM
Antimicrobial Activity MIC, S. e. b [7]: 2.5 µM
Antimicrobial Activity MIC, C. a. [8]: 6.3 µM
Haemolytic Activity LC50 [9]: >400 µM

KWMKLLKKILK-NH2 [IX]
Antimicrobial Activity MIC, E. f. b [1]: >100 µM
Antimicrobial Activity MIC, MRSA 6271 [2]: 13.5 µM
Antimicrobial Activity MIC, MRSA a [3]: 8.0 µM
Antimicrobial Activity MIC, MRSA b [4]: 17.7 µM
Antimicrobial Activity MIC, P. a. 5482 [5]: 2.9 µM
Antimicrobial Activity MIC, P. a. a [6]: 5.8 µM
Antimicrobial Activity MIC, S. e. b [7]: 3.2 µM
Antimicrobial Activity MIC, C. a. [8]: 9.5 µM
Haemolytic Activity LC50 [9]: >400 µM

Source: article PMC5874716, “Antimicrobial Peptides for Topical Treatment of Osteomyelitis and Implant-Related Infections: Study in the Spongy Bone” (Pharmaceuticals, 2018)
